Earlier results on six compounds are cited in patent US20050281746A1, “Anticoagulant contrast media” (priority 2004, published 2005).

The conditions of series [1]: X-ray contrast agents grouped by structure; classes High / Low / Iso.
The conditions of series [2]: X-ray contrast agents grouped by structure.
The conditions of series [3]: X-ray contrast agents grouped by ionicity and benzene rings.

`CC(=O)N(CC(O)CN(C(C)=O)c1c(I)c(C(=O)NCC(O)CO)c(I)c(C(=O)NCC(O)CO)c1I)c1c(I)c(C(=O)NCC(O)CO)c(I)c(C(=O)NCC(O)CO)c1I` (centres unmarked) [Iodixanol]: in series [1], the “Osmolality (mOsm/kg)” value is reported as “(280) mOsm/kg”. Besides, the “Viscosity (cps)” value in series [2] was 26 cps. Besides, the Adverse effects entry in series [3] is “Thrombotic”.

`CC(=O)N(CC(O)CO)c1c(I)c(C(=O)NCC(O)CO)c(I)c(C(=O)NCC(O)CO)c1I` (centres unmarked) [Iohexol]: in series [3], the Adverse effects result was “Thrombotic”.

Turning to `CN(C(=O)CO)c1c(I)c(C(=O)NCC(O)CO)c(I)c(C(=O)NCC(O)CO)c1I` (centres unmarked) [Iomerpol], the Adverse effects entry in series [3] is recorded as “Thrombotic”.

For the compound `C[C@H](O)C(=O)Nc1c(I)c(C(=O)NC(CO)CO)c(I)c(C(=O)NC(CO)CO)c1I` [Iopamidol], the Adverse effects entry in series [3] is recorded as “Thrombotic”.

Take `COCC(O)CN(C(C)=O)c1c(I)c(C(=O)NCC(O)CO)c(I)c(C(=O)NCC(O)CO)c1I` (centres unmarked) [Iopentol]: the Adverse effects result in series [3] is on record as “Thrombotic”.

Consider `COCC(=O)Nc1c(I)c(C(=O)NCC(O)CO)c(I)c(C(=O)N(C)CC(O)CO)c1I` (centres unmarked) [Iopromide], for which, in series [3], the Adverse effects result is listed as “Thrombotic”.
